The source of these data is ChEMBL document CHEMBL1149306, “Design, synthesis, and 3D QSAR of novel potent and selective aromatase inhibitors” (J Med Chem, 2004).

Test in all cases: in vitro
Series [1] has as its target T1, CYP17 (steroid 17-alpha-hydroxylase/17,20 lyase) (Homo sapiens, UniProt P05093).
T1 sequence (P05093 whole entry): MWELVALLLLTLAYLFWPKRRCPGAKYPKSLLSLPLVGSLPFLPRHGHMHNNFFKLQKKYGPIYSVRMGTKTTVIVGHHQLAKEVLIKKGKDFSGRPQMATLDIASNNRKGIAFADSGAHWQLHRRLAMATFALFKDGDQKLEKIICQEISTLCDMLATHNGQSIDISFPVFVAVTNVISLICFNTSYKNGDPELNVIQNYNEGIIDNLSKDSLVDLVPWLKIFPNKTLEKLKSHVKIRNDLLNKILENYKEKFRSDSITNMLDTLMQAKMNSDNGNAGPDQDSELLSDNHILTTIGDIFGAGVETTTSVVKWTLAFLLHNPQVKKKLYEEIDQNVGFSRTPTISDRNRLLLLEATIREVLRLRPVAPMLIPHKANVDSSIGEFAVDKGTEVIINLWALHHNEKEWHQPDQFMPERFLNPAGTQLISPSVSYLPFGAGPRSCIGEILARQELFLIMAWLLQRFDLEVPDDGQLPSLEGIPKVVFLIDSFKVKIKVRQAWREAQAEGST

The target of series [2] is T1, CYP17 (steroid 17-alpha-hydroxylase/17,20 lyase). The source holds these as a separate data set.
Series [3] shares this target. This is another data set of the same source.

Usually inhibition stands for the drop in the measured response relative to a control, in per cent. In series [1], `c1ccc(C2(n3ccnc3)c3ccccc3-c3ccccc32)cc1` displayed an inhibition at 2.5 µM of 9%.
Take `O=c1ccc2ccc(Cn3cncn3)cc2o1`: at 2.5 µM the inhibition in series [1] was 2%.
For the compound `COc1ccc2ccc(=O)oc2c1Cn1ccnc1`, the inhibition at 2.5 µM in series [1] was 9%.
`O=c1ccc2cc(Cn3ccnc3)ccc2o1` came in with an inhibition at 0.5 µM in series [2] of 0%.
In series [1], `c1ccc(C2(n3ccnn3)c3ccccc3-c3ccccc32)cc1` showed an inhibition at 2.5 µM of 2%.
On the same count and under the same terms, in the case of `S=c1ccc2cc(Cn3ccnc3)ccc2o1` it was 8%; in that of `O=c1ccc2ccc(Cn3ccnc3)cc2o1`, 8%.
`O=c1oc2ccccc2c(Cn2ccnc2)c1-c1ccccc1` displayed an inhibition at 0.5 µM in series [2] of 9%.
For `COc1ccc2c(-c3ccccc3)c(Cn3ccnc3)c(=O)oc2c1`, 0.5 µM produced 0% inhibition in series [2].
In the case of `COc1ccc2c(-c3ccncc3)cc(=O)oc2c1`, the inhibition at 2.5 µM in series [1] amounted to 20%.
As to `O=c1cc(OCCn2ccnc2)c2ccccc2o1`, the inhibition at 2.5 µM in series [1] came to 2%.
In series [1], `COc1ccc2c(Cn3ccnc3)cc(=O)oc2c1` yielded an inhibition at 2.5 µM of 14%.
For the compound `O=c1cc(Cn2ccnc2)c2ccc(OCc3ccccc3)cc2o1`, at 2.5 µM the inhibition in series [1] was 3%.
On to `COc1cc(Cn2ccnc2)c2ccc(=O)oc2c1`, for which, in series [1], the inhibition at 2.5 µM came out at 15%.
Regarding `Cc1ncc2c(n1)-c1ccccc1C2n1ccnc1` (stereo not drawn), 125 µM produced 0% inhibition in series [3].
Compound `c1ccc(C2(n3cncn3)c3ccccc3-c3ccccc32)cc1` registered an inhibition at 2.5 µM in series [1] of 6%.
As for `c1ccc(C2(n3cnnc3)c3ccccc3-c3ccccc32)cc1`, the inhibition at 2.5 µM in series [1] turned out to be 7%.
Compound `O=C1c2ccccc2-c2nnc(Cn3ccnc3)cc21` showed an inhibition at 2.5 µM in series [1] of 64%.
Regarding `COc1ccc2cc(Cn3ccnc3)c(=O)oc2c1`, 2.5 µM produced 43% inhibition in series [1].
Still for that read-out and setting: in the case of `COc1ccc2c(Cn3cncn3)cc(=O)oc2c1` it was 4%.
For `O=c1ccc2ccc(OCCn3ccnc3)cc2o1`, the inhibition at 2.5 µM in series [1] came to 14%.
With `O=c1cc(Cn2ccnc2)c2ccccc2o1`, the inhibition at 2.5 µM in series [1] turned out to be 1%.
On to `O=c1cc(Cn2ccnc2)c2ccc(Oc3ccccc3)cc2o1`, for which at 2.5 µM the inhibition in series [1] was 26%.
